Measured values from patent publication US20220242870A1, “HETEROCYCLE-FUSED PYRIMIDINE DERIVATIVE AND USE THEREOF” (VORONOI Inc., priority 2019, published 2022).

What was measured:
human GST-HPK1 (1-346) = target: T1, human GST-HPK1 (1-346) (Homo sapiens, UniProt Q92918); test: HPK1 enzyme inhibitory ability (ADP-Glo kinase assay); type: biochemical; settings: human GST-HPK1 3 ng, ATP 3 uM, 25° C. 2 hours
T1 construct: purified human GST-HPK1 (1-346, Signalchem) enzyme; purchased Signalchem
T1 sequence (Q92918 1-346): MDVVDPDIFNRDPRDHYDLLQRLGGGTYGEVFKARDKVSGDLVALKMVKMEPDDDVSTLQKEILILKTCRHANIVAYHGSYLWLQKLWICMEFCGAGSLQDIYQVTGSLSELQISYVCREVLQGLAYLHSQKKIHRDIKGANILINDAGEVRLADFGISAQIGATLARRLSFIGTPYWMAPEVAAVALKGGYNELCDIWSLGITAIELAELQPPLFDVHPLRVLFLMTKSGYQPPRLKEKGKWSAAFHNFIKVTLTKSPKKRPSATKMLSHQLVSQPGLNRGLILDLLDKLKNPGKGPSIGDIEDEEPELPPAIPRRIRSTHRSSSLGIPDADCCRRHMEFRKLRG
Procedure: In order to evaluate the inhibitory activities of the example compounds according to the present invention on the HPK1 (hematopoietic progenitor kinase 1) enzyme, the following experiment was performed. The example compounds were reacted with the purified human GST-HPK1 (1-346, Signalchem) enzyme to evaluate the enzyme inhibitory ability by the following method. As the reaction buffer, a composition of 40 mM Tris-HCl pH 7.4, 20 mM MgCl2, 0.5 mg/mL BSA and 50 uM DTT was used, and reactions of all test matters were performed on the reaction buffer. Upon the test, the human GST-HPK1 (3 ng) enzyme, the purified ATP (3 uM) and a specific substrate solution were reacted at 25° C. for 2 hours, and then the enzyme activity was identified using an in vitro ADP-Glo™ kinase assay (promega). The enzyme activity reaction solution, the ADP-Glo reaction solution and the enzyme ability detection solution were reacted in a ratio of 2:2:1 to measure luminescence. The enzyme activity inhibition degree according to the treatment concentrations of the respective compounds was calculated based on the fluorescence of the enzyme activity of the solvent control group that was not treated with the compound, where the concentration of each compound that inhibited enzyme activity inhibition by 50% was determined as an IC50 (nM) value.

human FLT3-ITD enzyme = target: T2, human FLT3-ITD enzyme (Homo sapiens, UniProt P36888); test: FLT3 enzyme inhibitory ability (ADP-Glo kinase assay); type: biochemical; settings: human FLT3-ITD enzyme 10 ng, ATP 10 μM, 25° C. 1 hour
T2 sequence (P36888 1-993): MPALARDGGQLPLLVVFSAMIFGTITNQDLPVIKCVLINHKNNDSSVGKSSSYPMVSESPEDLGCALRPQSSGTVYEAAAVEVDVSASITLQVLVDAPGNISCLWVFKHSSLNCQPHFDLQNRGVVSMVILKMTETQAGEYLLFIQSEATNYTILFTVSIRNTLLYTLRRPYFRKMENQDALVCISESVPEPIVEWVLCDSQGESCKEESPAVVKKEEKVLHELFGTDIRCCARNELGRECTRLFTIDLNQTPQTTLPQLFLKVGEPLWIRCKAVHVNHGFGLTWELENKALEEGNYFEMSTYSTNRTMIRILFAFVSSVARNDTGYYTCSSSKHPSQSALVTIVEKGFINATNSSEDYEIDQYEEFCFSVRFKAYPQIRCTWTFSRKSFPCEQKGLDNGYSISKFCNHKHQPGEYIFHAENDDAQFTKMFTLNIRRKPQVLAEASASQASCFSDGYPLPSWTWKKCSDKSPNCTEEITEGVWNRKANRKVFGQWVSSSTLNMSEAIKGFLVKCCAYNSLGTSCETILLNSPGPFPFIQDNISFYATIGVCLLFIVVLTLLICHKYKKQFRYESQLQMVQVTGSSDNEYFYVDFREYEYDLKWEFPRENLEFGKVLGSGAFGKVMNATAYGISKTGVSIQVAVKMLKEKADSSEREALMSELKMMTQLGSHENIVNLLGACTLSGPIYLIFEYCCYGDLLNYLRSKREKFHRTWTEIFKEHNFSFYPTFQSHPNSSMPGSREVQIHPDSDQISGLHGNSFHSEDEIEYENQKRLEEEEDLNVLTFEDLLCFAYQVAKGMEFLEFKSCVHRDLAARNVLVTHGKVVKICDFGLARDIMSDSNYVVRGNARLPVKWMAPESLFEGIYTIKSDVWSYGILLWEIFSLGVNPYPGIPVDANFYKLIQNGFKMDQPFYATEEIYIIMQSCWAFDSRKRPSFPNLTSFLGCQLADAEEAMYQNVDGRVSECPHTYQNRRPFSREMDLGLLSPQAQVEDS
Method in brief: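 Purified human FLT3-ITD (10 ng) with 10 μM ATP and specific substrate in 40 mM Tris-HCl pH 7.4, 20 mM MgCl2, 0.5 mg/mL BSA, 50 μM DTT, 1 h at 25 °C. ADP formation read by ADP-Glo luminescence; IC50 (nM) versus solvent-treated control.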

MCF-7 cells = test: Breast cancer cell line proliferation inhibitory activity (CellTiter-Glo 2.0); type: cell-based; settings: Homo sapiens, MCF7, 120 hours
Procedure: In order to evaluate the breast cancer cell line cell proliferation inhibitory activities of Examples according to the present invention, the following experiment was performed. Breast cancer cells of MCF-7 (Korean Cell Line Bank) were planted in a clear bottom white 96-well plate (Corning) so as to be 3×10^3/150 μl/well, and a culture solution comprising the compound continuously diluted in multiples of 3 at 12 concentrations (0.00001-2 mM) and a DMSO control group was added by 0.5 μl/well and treated so that the final concentration was 0.00005-10 μM, and then cultured in a 37° C. CO2 incubator for 120 hours. After 120 hours, the plate treated with the compound is taken out, and CellTiter-Glo® 2.0 Assay (Promega) solution is treated at 150 μl/well and then they mix well. They mix well at room temperature for 10 minutes or so, and the fluorescence is measured with a microplate reader. The data were expressed as a percentage in proportion to the vehicle standard treated cells, the GI50 (nM) values were calculated using GraphPad Prism 8.3.0 (GraphPad software Inc., San Diego), and the results were shown in Table 3 below.

SMILES	IC50 (human GST-HPK1 (1-346)) [nM]	IC50 (human FLT3-ITD enzyme) [nM]	GI50 (MCF-7 cells) [nM]
OCCN1CC[C@@H](Oc2cc(Nc3nc(N4OCC[C@H]4c4ccccc4)c4sccc4n3)cc(C3CC3)c2)C1 [Example 65, 2-((R)-3-(3-cyclopropyl-5-((4-((S)-3-phenylisoxazolidin-2-yl)thieno[3,2-d]pyrimidin-2-yl)amino)phenoxy)pyrrolidin-1-yl)ethan-1-ol]	> 500	> 500	> 500
CN(C)[C@@H]1CCN(c2cccc(Nc3nc(N4OCC[C@@H]4c4ccccc4)c4sccc4n3)c2)C1 [Example 63, N-(3-((R)-3-(dimethylamino)pyrrolidin-1-yl)phenyl)-4-((R)-3-phenylisoxazolidin-2-yl)thieno[3,2-d]pyrimidin-2-amine]	> 500	> 500	> 500
COc1cc(Nc2nc(N3OCC[C@@H]3c3ccccc3)c3sccc3n2)ccc1N1CCC(N2CCN(C)CC2)CC1 [Example 58, (R)-N-(3-methoxy-4-(4-(4-methylpiperazin-1-yl)piperidin-1-yl)phenyl)-4-(3-phenylisoxazolidin-2-yl)thieno[3,2-d]pyrimidin-2-amine]	> 500	> 500	> 500
CN(C)[C@H]1CCN(c2cccc(Nc3nc(N4OCC[C@@H]4c4ccccc4)c4sccc4n3)c2)C1 [Example 64, N-(3-((S)-3-(dimethylamino)pyrrolidin-1-yl)phenyl)-4-((R)-3-phenylisoxazolidin-2-yl)thieno[3,2-d]pyrimidin-2-amine]	> 500	> 500	> 500
COc1cc(Nc2nc(N3OCC[C@H]3c3ccccc3)c3sccc3n2)cc(C(=O)N2CCN(CCO)CC2)c1 [Example 66, (S)-(4-(2-hydroxyethyl)piperazin-1-yl)(3-methoxy-5-((4-(3-phenylisoxazolidin-2-yl)thieno[3,2-d]pyrimidin-2-yl)amino)phenyl)methanone]	> 500	> 500	> 500
CN(C)[C@H]1CCN(c2cccc(Nc3nc(N4N=CCC4c4ccccc4)c4sccc4n3)c2)C1 (stereo partly drawn) [Example 18, N-(3-((S)-3-(dimethylamino)pyrrolidin-1-yl)phenyl)-4-(5-phenyl-4,5-dihydro-1H-pyrazol-1-yl)thieno[3,2-d]pyrimidin-2-amine]	> 500	> 500	> 500
OCCN1CC[C@@H](Oc2cc(Nc3nc(N4N=CCC4c4ccccc4)c4sccc4n3)cc(C3CC3)c2)C1 (stereo partly drawn) [Example 14, 2-((3R)-3-(3-cyclopropyl-5-((4-(5-phenyl-4,5-dihydro-1H-pyrazol-1-yl)thieno[3,2-d]pyrimidin-2-yl)amino)phenoxy)pyrrolidin-1-yl)ethan-1-ol]	> 500	> 500	> 500

Next, values leading:

IC50 (human GST-HPK1 (1-346)) [nM]	IC50 (human FLT3-ITD enzyme) [nM]	GI50 (MCF-7 cells) [nM]	SMILES
≥ 250	> 500	> 500	CN1C[C@H]2C[C@@H]1CN2c1cc(Nc2nc(N3OCC[C@H]3c3ccccc3)c3cc[nH]c3n2)cc(S(C)(=O)=O)c1 [Example 92, N-(3-((1R,4R)-5-methyl-2,5-diazabicyclo[2.2.1]heptan-2-yl)-5-(methylsulfonyl)phenyl)-4-((S)-3-phenylisoxazolidin-2-yl)-7H-pyrrolo[2,3-d]pyrimidin-2-amine]
≥ 250	250 to 500	> 500	COc1cc(Nc2nc(N3OCC[C@H]3c3ccccc3)c3cc[nH]c3n2)ccc1N1CCC(N2CCN(CCO)CC2)CC1 [Example 90, (S)-2-(4-(1-(2-methoxy-4-((4-(3-phenylisoxazolidin-2-yl)-7H-pyrrolo[2,3-d]pyrimidin-2-yl)amino)phenyl)piperidin-4-yl)piperazin-1-yl)ethan-1-ol]
> 500	> 500	> 500	CN(C)[C@@H]1CCN(c2cccc(Nc3nc(N4OCC[C@@H]4c4ccccc4)c4cc[nH]c4n3)c2)C1 [Example 125, N-(3-((R)-3-(dimethylamino)pyrrolidin-1-yl)phenyl)-4-((R)-3-phenylisoxazolidin-2-yl)-7H-pyrrolo[2,3-d]pyrimidin-2-amine]
> 500	> 500	> 500	CN(C)[C@H]1CCN(c2cccc(Nc3nc(N4OCC[C@@H]4c4ccccc4)c4cc[nH]c4n3)c2)C1 [Example 126, N-(3-((S)-3-(dimethylamino)pyrrolidin-1-yl)phenyl)-4-((R)-3-phenylisoxazolidin-2-yl)-7H-pyrrolo[2,3-d]pyrimidin-2-amine]
≥ 250	250 to 500	> 500	OCCN1CCN(c2ccc(Nc3nc(N4OCC[C@H]4c4ccccc4)c4cc[nH]c4n3)cc2)CC1 [Example 81, (S)-2-(4-(4-((4-(3-phenylisoxazolidin-2-yl)-7H-pyrrolo[2,3-d]pyrimidin-2-yl)amino)phenyl)piperazin-1-yl)ethan-1-ol]
> 500	250 to 500	> 500	CN1CCN(c2ccc(Nc3nc(N4N=CCC4c4ccccc4)c4cc[nH]c4n3)cc2)CC1 (stereo not drawn) [Example 68, N-(4-(4-methylpiperazin-1-yl)phenyl)-4-(5-phenyl-4,5-dihydro-1H-pyrazol-1-yl)-7H-pyrrolo[2,3-d]pyrimidin-2-amine]
≥ 250	≥ 250	> 500	COc1cc(Nc2nc(N3OCC[C@H]3c3ccccc3)c3cc[nH]c3n2)ccc1N1CCN(CCO)CC1 [Example 82, (S)-2-(4-(2-methoxy-4-((4-(3-phenylisoxazolidin-2-yl)-7H-pyrrolo[2,3-d]pyrimidin-2-yl)amino)phenyl)piperazin-1-yl)ethan-1-ol]
